From patent publication US12157746B2, “Tetrahydro-1H-pyrazino[2,1-a]isoindolylquinoline compounds for the treatment of autoimmune disease” (F. HOFFMANN-LA ROCHE AG, priority 2018, dated 2024)

How the values were obtained:
human TLR8 = biological target: T1, human TLR8 (Homo sapiens, UniProt Q9NR97); assay: HEK293-Blue-hTLR-8 cells assay; format: cell-based; conditions: HEK293-Blue-hTLR8 cells, R848 stimulation, 20 hrs, SEAP reporter; read-out: HEK/hTLR8 IC50
T1 sequence (Q9NR97 27-1041): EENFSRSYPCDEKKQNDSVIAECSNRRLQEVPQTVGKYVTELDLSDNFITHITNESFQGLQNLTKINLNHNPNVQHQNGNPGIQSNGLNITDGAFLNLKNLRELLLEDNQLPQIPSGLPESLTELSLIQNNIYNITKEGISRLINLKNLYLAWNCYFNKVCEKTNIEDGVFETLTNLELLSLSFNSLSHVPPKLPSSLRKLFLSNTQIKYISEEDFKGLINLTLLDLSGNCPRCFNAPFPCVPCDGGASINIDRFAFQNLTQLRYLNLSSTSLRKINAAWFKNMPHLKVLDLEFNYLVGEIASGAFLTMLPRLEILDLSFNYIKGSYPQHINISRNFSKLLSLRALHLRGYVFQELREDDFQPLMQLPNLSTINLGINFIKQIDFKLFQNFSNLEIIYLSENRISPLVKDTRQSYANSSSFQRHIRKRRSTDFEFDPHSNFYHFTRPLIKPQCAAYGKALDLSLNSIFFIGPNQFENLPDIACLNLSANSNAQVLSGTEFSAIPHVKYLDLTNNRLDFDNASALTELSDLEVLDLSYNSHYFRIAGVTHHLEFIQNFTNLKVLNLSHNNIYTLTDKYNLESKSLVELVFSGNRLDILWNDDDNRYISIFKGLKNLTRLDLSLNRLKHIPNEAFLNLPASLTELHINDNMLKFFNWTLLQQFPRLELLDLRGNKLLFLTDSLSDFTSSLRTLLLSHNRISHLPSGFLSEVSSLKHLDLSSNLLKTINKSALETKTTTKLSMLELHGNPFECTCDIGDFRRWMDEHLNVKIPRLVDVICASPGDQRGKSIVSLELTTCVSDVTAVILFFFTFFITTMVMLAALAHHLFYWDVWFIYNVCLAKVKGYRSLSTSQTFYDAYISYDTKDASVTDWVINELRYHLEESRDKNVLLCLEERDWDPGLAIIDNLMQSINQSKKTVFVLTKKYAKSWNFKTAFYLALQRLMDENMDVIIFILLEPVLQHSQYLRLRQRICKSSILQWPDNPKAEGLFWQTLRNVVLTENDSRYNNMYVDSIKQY
In short: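 Antagonism read out in HEK293-Blue-hTLR8 cells carrying an NF-κB/AP-1-driven SEAP reporter, stimulated with R848 (10 μL of 60 uM stock added) alongside serially diluted compound (1% DMSO), 20 h at 37° C. Supernatant SEAP measured with QUANTI-Blue after 2 h at 37° C, absorbance at 620-655 nm.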

hERG K+ channel = biological target: T2, hERG K+ channel (Homo sapiens, UniProt Q12809); assay: hERG channel inhibition assay; format: cell-based; conditions: patch-clamp (voltage-clamp, whole-cell); for IC50: CHO cells expressing hERG; for IC20: human, CHO cells stably expressing hERG
T2 construct: expressed in transfected cells; host or cells: CHO (Chinese hamster ovary) cells, CHOhERG
Procedure: hERG Channel Inhibition Assay
The hERG K^+ channels were cloned in humans and stably expressed in a CHO (Chinese hamster ovary) cell line. CHOhERG cells were used for patch-clamp (voltage-clamp, whole-cell) experiments. Cells were stimulated by a voltage pattern to activate hERG channels and conduct IKhERG currents (rapid delayed outward rectifier potassium current of the hERG channel). After the cells were stabilized for a few minutes, the amplitude and kinetics of IKhERG were recorded at a stimulation frequency of 0.1 Hz (6 bpm). Thereafter, the test compound was added to the preparation at increasing concentrations. For each concentration, an attempt was made to reach a steady-state effect, usually, this was achieved within 3-10 min at which time the next highest concentration was applied. The amplitude and kinetics of IKhERG are recorded in each concentration of the drug which were compared to the control values (taken as 100%). (references: Redfem W S, Carlsson L, Davis A S, Lynch W G, MacKenzie I, Palethorpe S, Siegl P K, Strang I, Sullivan A T, Wallis R, Camm A J, Hammond T G. 2003; Relationships between preclinical cardiac electrophysiology, clinical QT interval prolongation and torsade de pointes for a broad range of drugs: evidence for a provisional safety margin in drug development. Cardiovasc. Res. 58:32-45, Sanguinetti M C, Tristani-Firouzi M. 2006; hERG potassium channels and cardiac arrhythmia. Nature 440:463-469, Webster R, Leishman D, Walker D. 2002; Towards a drug concentration effect relationship for QT prolongation and torsades de pointes. Curr. Opin. Drug Discov. Devel. 5:116-26).

T2 sequence (Q12809 whole entry): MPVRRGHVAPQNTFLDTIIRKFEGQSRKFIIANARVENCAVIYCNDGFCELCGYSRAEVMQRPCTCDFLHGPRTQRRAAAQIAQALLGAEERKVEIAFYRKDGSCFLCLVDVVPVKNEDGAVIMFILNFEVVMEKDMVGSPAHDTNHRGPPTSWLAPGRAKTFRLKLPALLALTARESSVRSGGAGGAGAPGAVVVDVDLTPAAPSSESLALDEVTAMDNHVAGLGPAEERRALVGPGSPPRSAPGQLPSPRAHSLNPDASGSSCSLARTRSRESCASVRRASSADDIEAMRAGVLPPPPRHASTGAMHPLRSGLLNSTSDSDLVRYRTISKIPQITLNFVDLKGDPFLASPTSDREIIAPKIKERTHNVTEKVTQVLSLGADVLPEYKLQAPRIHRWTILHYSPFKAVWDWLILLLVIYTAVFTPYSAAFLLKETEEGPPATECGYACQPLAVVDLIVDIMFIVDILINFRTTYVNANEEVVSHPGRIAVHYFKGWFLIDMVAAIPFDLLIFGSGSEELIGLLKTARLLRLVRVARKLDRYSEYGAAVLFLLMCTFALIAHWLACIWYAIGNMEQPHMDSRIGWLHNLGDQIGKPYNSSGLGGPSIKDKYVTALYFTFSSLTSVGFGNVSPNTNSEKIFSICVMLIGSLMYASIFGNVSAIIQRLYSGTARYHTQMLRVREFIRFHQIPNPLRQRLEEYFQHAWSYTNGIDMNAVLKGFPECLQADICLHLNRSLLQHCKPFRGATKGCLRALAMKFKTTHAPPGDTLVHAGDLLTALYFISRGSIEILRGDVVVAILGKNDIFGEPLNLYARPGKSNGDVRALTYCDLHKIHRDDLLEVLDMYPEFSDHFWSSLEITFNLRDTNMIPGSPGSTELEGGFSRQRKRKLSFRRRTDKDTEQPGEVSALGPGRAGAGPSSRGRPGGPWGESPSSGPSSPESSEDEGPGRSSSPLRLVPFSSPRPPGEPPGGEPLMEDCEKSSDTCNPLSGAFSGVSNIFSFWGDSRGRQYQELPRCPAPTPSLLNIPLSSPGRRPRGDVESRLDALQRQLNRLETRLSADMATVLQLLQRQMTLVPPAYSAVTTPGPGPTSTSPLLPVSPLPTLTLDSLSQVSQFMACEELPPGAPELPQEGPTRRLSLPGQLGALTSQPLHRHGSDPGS

Row | Structure (SMILES) | IC50 (human TLR8) [µM] | IC50 (hERG K+ channel) [µM] | IC20 (hERG K+ channel) [µM]
1 | C[C@@H]1CN(c2ccc(C#N)c3ncccc23)C[C@@H]2c3ccc(N4CC5(CCN5)C4)cc3CN12 [Example 37, 5-[(4R,10bS)-8-(1,6-diazaspiro[3.3]heptan-6-yl)-4-methyl-3,4,6,10b-tetrahydro-1H-pyrazino[2,1-a]isoindol-2-yl]quinoline-8-carbonitrile] | < 0.0032 | > 20 | 8.6
2 | C[C@@H]1CN(c2ccc(C#N)c3ncccc23)C[C@@H]2c3ccc(N4CC5(CN(C)C5)C4)cc3CN12 [Example 38, 5-[(4R,10bS)-4-methyl-8-(6-methyl-2,6-diazaspiro[3.3]heptan-2-yl)-3,4,6,10b-tetrahydro-1H-pyrazino[2,1-a]isoindol-2-yl]quinoline-8-carbonitrile] | < 0.0003 | > 20 | > 10
3 | C[C@@H]1CN(c2ccc(C#N)c3ncccc23)C[C@@H]2c3ccc(N4CC(C)(N)C4)cc3CN12 [Example 39, 5-[(4R,10bS)-8-(3-amino-3-methyl-azetidin-1-yl)-4-methyl-3,4,6,10b-tetrahydro-1H-pyrazino[2,1-a]isoindol-2-yl]quinoline-8-carbonitrile] | < 0.0003 | > 20 | > 10
4 | COC12CNCC1CN(c1ccc3c(c1)CN1[C@H](C)CN(c4ccc(C#N)c5ncccc45)C[C@H]31)C2 (stereo partly drawn) [Example 41, 5-[(4R,10bS)-8-(3a-methoxy-1,2,3,4,6,6a-hexahydropyrrolo[3,4-c]pyrrol-5-yl)-4-methyl-3,4,6,10b-tetrahydro-1H-pyrazino[2,1-a]isoindol-2-yl]quinoline-8-carbonitrile] | < 0.0032 | > 20 | > 10
5 | CN[C@H]1CN(c2ccc3c(c2)CN2[C@H](C)CN(c4ccc(C#N)c5ncccc45)C[C@H]32)C[C@@H]1O [Example 42, 5-[(4R,10bS)-8-[(3S,4S)-3-hydroxy-4-(methylamino)pyrrolidin-1-yl]-4-methyl-3,4,6,10b-tetrahydro-1H-pyrazino[2,1-a]isoindol-2-yl]quinoline-8-carbonitrile] | < 0.0032 | > 20 | 6.7
6 | CN[C@@H]1CN(c2ccc3c(c2)CN2[C@H](C)CN(c4ccc(C#N)c5ncccc45)C[C@H]32)C[C@H]1O [Example 43, 5-[(4R,10bS)-4-methyl-8-[(3R,4R)-3-hydroxy-4-(methylamino)pyrrolidin-1-yl]-3,4,6,10b-tetrahydro-1H-pyrazino[2,1-a]isoindol-2-yl]quinoline-8-carbonitrile] | < 0.0032 | > 20 | 5.2
7 | C[C@@H]1CN(c2ccc(C#N)c3ncccc23)C[C@@H]2c3ccc(N4C[C@H]5NCCO[C@@H]5C4)cc3CN12 [Example 44, 5-[(4R,10bS)-4-methyl-8-[(4aR,7aR)-3,4,4a,5,7,7a-hexahydro-2H-pyrrolo[3,4-b][1,4]oxazin-6-yl]-3,4,6,10b-tetrahydro-1H-pyrazino[2,1-a]isoindol-2-yl]quinoline-8-carbonitrile] | 0.0004 | > 20 | 6.4
8 | C[C@@H]1CN(c2ccc(C#N)c3ncccc23)C[C@@H]2c3ccc(N4C[C@@H](N)[C@](C)(O)C4)cc3CN12 [Example 45A, 5-[(4R,10bS)-8-[(3R,4R)-4-amino-3-hydroxy-3-methyl-pyrrolidin-1-yl]-4-methyl-3,4,6,10b-tetrahydro-1H-pyrazino[2,1-a]isoindol-2-yl]quinoline-8-carbonitrile] | 0.0015 | > 20 | 7.4
9 | C[C@@H]1CN(c2ccc(C#N)c3ncccc23)C[C@@H]2c3ccc(N4C[C@H](N)[C@@](C)(O)C4)cc3CN12 [Example 45B, 5-[(4R,10bS)-8-[(3S,4S)-4-amino-3-hydroxy-3-methyl-pyrrolidin-1-yl]-4-methyl-3,4,6,10b-tetrahydro-1H-pyrazino[2,1-a]isoindol-2-yl]quinoline-8-carbonitrile] | 0.0012 | > 20 | > 10
10 | C[C@@H]1CN(c2ccc(C#N)c3ncccc23)C[C@@H]2c3ccc(N4CCNC[C@H](O)C4)cc3CN12 [Example 53A, 5-[(4R,10bS)-8-[(6S)-6-hydroxy-1,4-diazepan-1-yl]-4-methyl-3,4,6,10b-tetrahydro-1H-pyrazino[2,1-a]isoindol-2-yl]quinoline-8-carbonitrile] | < 0.0032 | > 20 | 6.6
11 | C[C@@H]1CN(c2ccc(C#N)c3ncccc23)C[C@@H]2c3ccc(N4CCOCC(N)C4)cc3CN12 (stereo partly drawn) [Example 54, 5-[(4R,10bS)-8-(6-amino-1,4-oxazepan-4-yl)-4-methyl-3,4,6,10b-tetrahydro-1H-pyrazino[2,1-a]isoindol-2-yl]quinoline-8-carbonitrile] | < 0.0032 | > 20 | > 10
12 | C[C@@H]1CN(c2ccc(C#N)c3ncccc23)C[C@@H]2c3ccc(N4CCOC[C@@H](N)C4)cc3CN12 [Example 54B, 5-[(4R,10bS)-8-[(6S)-6-amino-1,4-oxazepan-4-yl]-4-methyl-3,4,6,10b-tetrahydro-1H-pyrazino[2,1-a]isoindol-2-yl]quinoline-8-carbonitrile] | < 0.0032 | > 20 | > 10
13 | C[C@@H]1CN(c2ccc(C#N)c3ncccc23)C[C@@H]2c3ccc(NC4CNCCOC4)cc3CN12 (stereo partly drawn) [Example 56, 5-[(4R,10bS)-4-methyl-8-(1,4-oxazepan-6-ylamino)-3,4,6,10b-tetrahydro-1H-pyrazino[2,1-a]isoindol-2-yl]quinoline-8-carbonitrile] | < 0.0032 | > 20 | > 10
14 | CO[C@@H]1CN(c2ccc3c(c2)CN2[C@H](C)CN(c4ccc(C#N)n5nccc45)C[C@H]32)C[C@H]1N [Example 94, 4-[(4R,10bS)-8-[(3R,4R)-3-amino-4-methoxy-pyrrolidin-1-yl]-4-methyl-3,4,6,10b-tetrahydro-1H-pyrazino[2,1-a]isoindol-2-yl]pyrazolo[1,5-a]pyridine-7-carbonitrile] | 0.0056 | > 20 | > 10
